# Results reported in US10076519B2 (CYTOKINETICS, INC., priority 2010, dated 2018).
# Tested on: rabbit skeletal myofibrils (fast skeletal myofibrils)
# Assay: Activation of fast skeletal myofibrils (PUMA assay, PK/LDH-coupled ATPase at pCa25)
# Type: biochemical
# Conditions: AC1.4 determined according to the procedure of Example 39; reported as class symbols
# Summary of the method: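 ATPase activity of Triton-washed rabbit skeletal myofibrils, roughly 90% fast fibres, tracked by NADH loss at 340 nm through a PK/LDH-coupled ADP-regenerating system. Calcium set to 25% of maximal activity (pCa25), in PIPES 12 mM pH 6.8 with 2 mM MgCl2 and 1 mM DTT; AC1.4 reported.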
row,SMILES,Mean AC1.4
1,COc1ccc(C2(CNc3ccc(-c4ccc5[nH]ncc5c4)nn3)CCC2)nc1 [(6-(1H-indazol-5-yl)pyridazin-3-yl){[(5-methoxy(2-pyridyl))cyclobutyl]methyl}amine],B (B=1-10 uM)
2,COc1cccc(C2(CNc3ccc(-c4ccc5[nH]ncc5c4)nn3)CCC2)n1 [(6-(1H-indazol-5-yl)pyridazin-3-yl){[(6-methoxy(2-pyridyl))cyclobutyl]methyl}amine],A (A=<1 uM)
3,CC(C)(CNc1ccc(-c2ccc3cn[nH]c3c2)nn1)c1ccc(F)cc1 [(6-(1H-indazol-6-yl)pyridazin-3-yl)[2-(4-fluorophenyl)-2-methylpropyl]amine],A (A=<1 uM)
4,c1ccc(C2(CNc3ccc(-c4ccc5cn[nH]c5c4)nn3)CCC2)nc1 [(6-(1H-indazol-6-yl)pyridazin-3-yl)[(2-pyridylcyclobutyl)methyl]amine],A (A=<1 uM)
5,c1cnc(C2(CNc3ccc(-c4ccc5cn[nH]c5c4)nn3)CCC2)cn1 [(6-(1H-indazol-6-yl)pyridazin-3-yl)[(pyrazin-2-ylcyclobutyl)methyl]amine],C (C=10-20 uM)
6,Fc1cccnc1C1(CNc2ccc(-c3ccc4cn[nH]c4c3)nn2)CCC1 [(6-(1H-indazol-6-yl)pyridazin-3-yl){[(3-fluoro(2-pyridyl))cyclobutyl]methyl}amine],A (A=<1 uM)
7,COc1cccnc1C1(CNc2ccc(-c3ccc4cn[nH]c4c3)nn2)CCC1 [(6-(1H-indazol-6-yl)pyridazin-3-yl){[(3-methoxy(2-pyridyl))cyclobutyl]methyl}amine],B (B=1-10 uM)
8,Fc1ccc(C2(CNc3ccc(-c4ccc5cn[nH]c5c4)nn3)CCC2)cc1 [(6-(1H-indazol-6-yl)pyridazin-3-yl){[(4-fluorophenyl)cyclo-butyl]methyl}amine],A (A=<1 uM)
9,COc1ccnc(C2(CNc3ccc(-c4ccc5cn[nH]c5c4)nn3)CCC2)c1 [(6-(1H-indazol-6-yl)pyridazin-3-yl){[(4-methoxy(2-pyridyl))cyclobutyl]methyl}amine],A (A=<1 uM)
10,COc1ccc(C2(CNc3ccc(-c4ccc5cn[nH]c5c4)nn3)CCC2)nc1 [(6-(1H-indazol-6-yl)pyridazin-3-yl){[(5-methoxy(2-pyridyl))cyclobutyl]methyl}amine],B (B=1-10 uM)
11,COc1cccc(C2(CNc3ccc(-c4ccc5cn[nH]c5c4)nn3)CCC2)n1 [(6-(1H-indazol-6-yl)pyridazin-3-yl){[(6-methoxy(2-pyridyl))cyclobutyl]methyl}amine],A (A=<1 uM)
12,CC(C)(CNc1ccc(-c2ccc3[nH]cnc3c2)nn1)c1ccc(F)cc1 [(6-benzimidazol-5-ylpyridazin-3-yl)[2-(4-fluorophenyl)-2-methylpropyl]amine],A (A=<1 uM)
13,Fc1cccnc1C1(CNc2ccc(-c3ccc4[nH]cnc4c3)nn2)CCC1 [(6-benzimidazol-5-ylpyridazin-3-yl){[(3-fluoro(2-pyridyl))cyclobutyl]methyl}amine],A (A=<1 uM)

# Results, then the compound that gave them:
row,Mean AC1.4,SMILES
1,A (A=<1 uM),Fc1cccnc1C1(CNc2ccc(-c3ccc4n[nH]nc4c3)nn2)CCC1 [(6-benzotriazol-6-ylpyridazin-3-yl){[(3-fluoro(2-pyridyl))cyclobutyl]methyl}amine]
2,C (C=10-20 uM),CCc1ccc(NCC(C)(C)c2ccc(F)cc2)nn1 [(6-ethylpyridazin-3-yl)[2-(4-fluorophenyl)-2-methylpropyl]amine]
3,A (A=<1 uM),CC(C)(CNc1ccc(-c2ccc3[nH]nc(NCCN)c3c2)nn1)c1ccc(F)cc1 [(6-{3-[(2-aminoethyl)amino](1H-indazol-5-yl)}pyridazin-3-yl)[2-(4-fluorophenyl)-2-methylpropyl]amine]
4,A (A=<1 uM),NCCNc1n[nH]c2ccc(-c3ccc(NCC4(c5ncccc5F)CCC4)nn3)cc12 [(6-{3-[(2-aminoethyl)amino](1H-indazol-5-yl)}pyridazin-3-yl){[(3-fluoro(2-pyridyl))cyclobutyl]methyl}amine]
5,C (C=10-20 uM),CC(C)(CNc1ccc(C(=O)NCc2cc[nH]n2)nn1)c1ccc(F)cc1 [(6-{[2-(4-fluorophenyl)-2-methylpropyl]amino}pyridazin-3-yl)-N-(pyrazol-3-ylmethyl)carboxamide]
6,C (C=10-20 uM),CC(C)(CNc1ccc(C(=O)NCC2CCC(=O)N2)nn1)c1ccc(F)cc1 (centres unmarked) [(6-{[2-(4-fluorophenyl)-2-methylpropyl]amino}pyridazin-3-yl)-N-[(5-oxopyrrolidin-2-yl)methyl]carboxamide]
7,D (D=>20 uM),CC(C)(CNc1ccc(C(=O)Nc2ccn[nH]2)nn1)c1ccc(F)cc1 [(6-{[2-(4-fluorophenyl)-2-methylpropyl]amino}pyridazin-3-yl)-N-pyrazol-5-ylcarboxamide]

# Same assay, conditions: median AC1.4 class, procedure of Example 39
row,SMILES,Mean AC1.4
1,"FC(F)(CNc1ccc(-c2ccc3cn[nH]c3c2)nn1)c1ccccn1 [(6-(1H-indazol-6-yl)pyridazin-3-yl)(2,2-difluoro-2-(2-pyridyl)ethyl)amine]",D (D=>20 uM)
2,Fc1cccnc1C1(Nc2ccc(-c3ccc4cn[nH]c4c3)nn2)CCC1 [(6-(1H-indazol-6-yl)pyridazin-3-yl)[(3-fluoro(2-pyridyl))cyclobutyl]amine],B (B=1-10 uM)
3,"Fc1cccnc1C1(CNc2ccc(-c3ccc4cn[nH]c4c3)nn2)CC(F)(F)C1 [(6-(1H-indazol-6-yl)pyridazin-3-yl){[3,3-difluoro-1-(3-fluoro(2-pyridyl))cyclobutyl]methyl}amine]",B (B=1-10 uM)
4,"Fc1cccnc1C1(CNc2ccc(-c3nn[nH]n3)nn2)CCC1 [(6-(2H-1,2,3,4-tetraazol-5-yl)pyridazin-3-yl){[(3-fluoro(2-pyridyl))cyclobutyl]methyl}amine]",D (D=>20 uM)
5,Fc1cccnc1C1(CNc2ccc(C3CNC3)nn2)CCC1 [(6-azetidin-3-ylpyridazin-3-yl){[(3-fluoro(2-pyridyl))cyclobutyl]methyl}amine],D (D=>20 uM)
6,Fc1ccc(C2(Nc3ccc(-c4ccc5[nH]cnc5c4)nn3)CCC2)cc1 [(6-benzimidazol-5-ylpyridazin-3-yl)[(4-fluorophenyl)cyclobutyl]amine],A (A=<1 uM)
7,Fc1cccnc1C1(Nc2ccc(-c3ccc4nc[nH]c4c3)nn2)CCC1 [(6-benzimidazol-6-ylpyridazin-3-yl)[(3-fluoro(2-pyridyl))cyclobutyl]amine],B (B=1-10 uM)

# Further lines, results first:
row,Mean AC1.4,SMILES
1,C (C=10-20 uM),Fc1cccnc1C1(Nc2ccc(C3=CCCCC3)nn2)CCC1 [(6-cyclohex-1-enylpyridazin-3-yl)[(3-fluoro(2-pyridyl))cyclobutyl]amine]
2,A (A=<1 uM),Fc1cccnc1C1(CNc2ccc(C3=CCCCC3)nn2)CCC1 [(6-cyclohex-1-enylpyridazin-3-yl){[(3-fluoro(2-pyridyl))cyclobutyl]methyl}amine]
3,C (C=10-20 uM),Fc1cccnc1C1(Nc2ccc(C3CCCCC3)nn2)CCC1 [(6-cyclohexylpyridazin-3-yl)[(3-fluoro(2-pyridyl))cyclobutyl]amine]
4,B (B=1-10 uM),Fc1cccnc1C1(CNc2ccc(C3CCCCC3)nn2)CCC1 [(6-cyclohexylpyridazin-3-yl){[(3-fluoro(2-pyridyl))cyclobutyl]methyl}amine]
5,D (D=>20 uM),CCc1ccc(NCC2(c3ncccc3F)CCC2)nn1 [(6-ethylpyridazin-3-yl){[(3-fluoro(2-pyridyl))cyclobutyl]meth-yl}amine]
